Measured values as given in ChEMBL document CHEMBL1909046, “DrugMatrix in vitro pharmacology data”.

Experiments:
[1] = biological target: Beta-3 adrenergic receptor (Homo sapiens, UniProt P13945); assay: DRUGMATRIX: Adrenergic beta3 radioligand binding (ligand: [125I] Cyanopindolol); format: cell membranes, HEK293, Membrane; details: hek293; Not Active = under 50% inhibition at 10 µM
[2] = DRUGMATRIX: ATPase, Na+/K+ enzyme inhibition (substrate: ATP); format: tissue-based, Sus scrofa, Heart; details: Not Active = under 50% inhibition at 10 µM
[3] = biological target: C-C chemokine receptor type 5 (Homo sapiens, UniProt P51681); format: cell membranes, Membrane; details: hek293; further: in other assays of this panel Not Active means under 50% inhibition at 10 µM
C-C chemokine receptor type 5, sequence (P51681 whole entry): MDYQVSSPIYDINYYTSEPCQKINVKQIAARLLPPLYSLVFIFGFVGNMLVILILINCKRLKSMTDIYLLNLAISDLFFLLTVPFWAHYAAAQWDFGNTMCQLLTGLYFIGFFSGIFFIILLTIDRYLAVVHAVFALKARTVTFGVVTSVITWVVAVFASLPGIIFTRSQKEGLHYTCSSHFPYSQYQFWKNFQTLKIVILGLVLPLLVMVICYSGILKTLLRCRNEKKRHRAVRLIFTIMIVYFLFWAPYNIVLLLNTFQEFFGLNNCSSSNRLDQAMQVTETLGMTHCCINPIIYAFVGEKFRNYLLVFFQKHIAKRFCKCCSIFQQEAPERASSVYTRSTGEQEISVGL

D(4) dopamine receptor = biological target: T1, D(4) dopamine receptor (Homo sapiens, UniProt P21917); assay: DRUGMATRIX: Dopamine D4.2 radioligand binding (ligand: [3H] Spiperone); format: cell membranes, CHO-K1, Membrane; details: cho-k1; Not Active = under 50% inhibition at 10 µM
T1 sequence (P21917 whole entry): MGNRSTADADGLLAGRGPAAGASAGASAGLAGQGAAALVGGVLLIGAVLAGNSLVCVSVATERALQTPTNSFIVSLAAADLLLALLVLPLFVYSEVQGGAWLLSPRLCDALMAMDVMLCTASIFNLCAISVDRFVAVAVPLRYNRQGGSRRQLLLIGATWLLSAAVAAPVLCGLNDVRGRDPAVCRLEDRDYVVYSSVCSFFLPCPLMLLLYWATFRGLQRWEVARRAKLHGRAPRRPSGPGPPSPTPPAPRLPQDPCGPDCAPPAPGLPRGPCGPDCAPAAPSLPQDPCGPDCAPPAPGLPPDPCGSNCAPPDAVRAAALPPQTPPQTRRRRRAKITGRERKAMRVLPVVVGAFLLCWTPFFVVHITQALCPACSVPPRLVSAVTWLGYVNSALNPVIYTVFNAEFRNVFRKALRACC

[4] = DRUGMATRIX: Glutamate, AMPA radioligand binding (ligand: [3H] AMPA); format: cell membranes, Rattus norvegicus, Wistar, Cerebral cortex, Membrane; details: Not Active = under 50% inhibition at 10 µM
[5] = DRUGMATRIX: Imidazoline I2, Central radioligand binding (ligand: [3H] Idazoxan); format: cell membranes, Rattus norvegicus, Wistar, Cerebral cortex, Membrane; details: Not Active = under 50% inhibition at 10 µM
Insulin receptor = Insulin receptor (Rattus norvegicus, UniProt P15127); format: cell membranes, Wistar, Liver, Membrane; further: in other assays of this panel Not Active means under 50% inhibition at 10 µM
Insulin receptor, sequence (P15127 27-759 limits assumed): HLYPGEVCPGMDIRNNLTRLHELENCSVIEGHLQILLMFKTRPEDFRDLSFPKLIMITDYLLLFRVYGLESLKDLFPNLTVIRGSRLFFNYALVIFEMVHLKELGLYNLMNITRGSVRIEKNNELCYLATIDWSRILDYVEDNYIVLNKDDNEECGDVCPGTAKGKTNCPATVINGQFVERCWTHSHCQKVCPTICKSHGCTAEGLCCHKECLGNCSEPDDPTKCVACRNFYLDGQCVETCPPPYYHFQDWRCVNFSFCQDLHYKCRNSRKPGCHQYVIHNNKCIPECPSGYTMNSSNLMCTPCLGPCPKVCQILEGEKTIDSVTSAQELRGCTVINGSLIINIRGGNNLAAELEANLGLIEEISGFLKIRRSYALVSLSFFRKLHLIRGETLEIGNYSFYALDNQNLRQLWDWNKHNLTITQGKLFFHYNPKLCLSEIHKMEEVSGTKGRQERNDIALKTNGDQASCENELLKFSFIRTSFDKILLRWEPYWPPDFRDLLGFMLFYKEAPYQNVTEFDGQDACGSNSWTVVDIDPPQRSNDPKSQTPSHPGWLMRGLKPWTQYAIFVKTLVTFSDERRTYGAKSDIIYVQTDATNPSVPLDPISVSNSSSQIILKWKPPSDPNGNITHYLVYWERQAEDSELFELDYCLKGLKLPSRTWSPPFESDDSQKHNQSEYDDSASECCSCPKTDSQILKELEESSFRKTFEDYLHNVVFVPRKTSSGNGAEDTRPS
Insulin receptor, sequence (P15127 764-1383 limits assumed): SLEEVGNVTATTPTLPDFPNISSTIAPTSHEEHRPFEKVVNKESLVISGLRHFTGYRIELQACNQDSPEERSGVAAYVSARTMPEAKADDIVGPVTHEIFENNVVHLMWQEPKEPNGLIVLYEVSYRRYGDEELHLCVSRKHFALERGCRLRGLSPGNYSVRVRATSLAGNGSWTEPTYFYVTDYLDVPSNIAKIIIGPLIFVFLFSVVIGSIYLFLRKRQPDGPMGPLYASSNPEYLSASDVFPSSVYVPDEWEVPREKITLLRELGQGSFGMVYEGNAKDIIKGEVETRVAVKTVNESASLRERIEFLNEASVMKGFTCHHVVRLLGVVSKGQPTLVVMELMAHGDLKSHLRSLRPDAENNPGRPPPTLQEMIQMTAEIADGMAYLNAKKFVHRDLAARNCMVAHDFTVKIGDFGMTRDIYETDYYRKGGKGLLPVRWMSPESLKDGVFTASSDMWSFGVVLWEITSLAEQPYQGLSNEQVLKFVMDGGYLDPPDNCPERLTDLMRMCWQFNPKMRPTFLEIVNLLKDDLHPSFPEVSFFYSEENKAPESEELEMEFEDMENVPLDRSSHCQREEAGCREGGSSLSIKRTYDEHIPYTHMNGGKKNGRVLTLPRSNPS

[6] = biological target: T2, Angiotensin-converting enzyme (Oryctolagus cuniculus, UniProt P12822); assay: biochemical; format: tissue-based, Lung;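 further: enzymatic inhibition of angiotensin-converting enzyme measured with FAPGG as the substrate; in other assays of this panel Not Active means under 50% inhibition at 10 µM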
T2 sequence (P12822 whole entry): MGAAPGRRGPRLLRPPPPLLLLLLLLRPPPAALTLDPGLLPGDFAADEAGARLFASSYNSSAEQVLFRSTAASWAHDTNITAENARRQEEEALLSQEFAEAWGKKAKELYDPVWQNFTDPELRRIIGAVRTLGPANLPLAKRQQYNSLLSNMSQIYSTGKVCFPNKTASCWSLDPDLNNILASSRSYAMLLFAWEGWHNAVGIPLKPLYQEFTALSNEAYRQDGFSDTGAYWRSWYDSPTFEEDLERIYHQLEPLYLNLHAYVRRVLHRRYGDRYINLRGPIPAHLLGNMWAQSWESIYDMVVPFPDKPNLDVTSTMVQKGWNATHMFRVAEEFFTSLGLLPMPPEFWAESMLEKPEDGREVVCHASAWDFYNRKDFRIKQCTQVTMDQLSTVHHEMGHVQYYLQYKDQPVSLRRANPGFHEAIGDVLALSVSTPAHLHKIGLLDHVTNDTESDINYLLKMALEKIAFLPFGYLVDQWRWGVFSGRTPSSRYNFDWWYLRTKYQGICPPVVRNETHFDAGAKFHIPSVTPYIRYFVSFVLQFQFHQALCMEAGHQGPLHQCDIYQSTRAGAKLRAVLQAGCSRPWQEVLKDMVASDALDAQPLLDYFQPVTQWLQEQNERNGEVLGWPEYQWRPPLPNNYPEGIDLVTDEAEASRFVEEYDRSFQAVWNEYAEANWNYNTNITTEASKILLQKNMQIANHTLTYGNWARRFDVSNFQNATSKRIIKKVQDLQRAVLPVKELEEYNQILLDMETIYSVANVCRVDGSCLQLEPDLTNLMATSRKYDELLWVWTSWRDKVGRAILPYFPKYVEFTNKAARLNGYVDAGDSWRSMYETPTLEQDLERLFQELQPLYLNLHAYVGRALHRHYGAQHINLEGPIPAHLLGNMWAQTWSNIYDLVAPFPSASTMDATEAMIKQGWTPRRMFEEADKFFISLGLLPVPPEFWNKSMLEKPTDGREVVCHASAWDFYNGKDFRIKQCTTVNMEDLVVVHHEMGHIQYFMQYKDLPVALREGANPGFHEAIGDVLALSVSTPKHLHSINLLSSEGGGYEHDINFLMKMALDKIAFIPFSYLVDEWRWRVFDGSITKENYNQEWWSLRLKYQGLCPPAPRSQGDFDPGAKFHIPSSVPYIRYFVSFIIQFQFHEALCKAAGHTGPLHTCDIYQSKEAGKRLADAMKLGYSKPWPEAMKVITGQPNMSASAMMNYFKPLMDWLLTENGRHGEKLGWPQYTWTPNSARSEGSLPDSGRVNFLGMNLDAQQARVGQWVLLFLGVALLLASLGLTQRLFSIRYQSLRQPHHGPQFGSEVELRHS

[7] = biological target: Epidermal growth factor receptor (Homo sapiens, UniProt P00533); assay: DRUGMATRIX: Protein Tyrosine Kinase, EGF Receptor enzyme inhibition (substrate: Poly(Glu:Tyr)); format: cell-based, Insect cells; details: insect cells; Not Active = under 50% inhibition at 10 µM
Epidermal growth factor receptor, sequence (P00533 whole entry): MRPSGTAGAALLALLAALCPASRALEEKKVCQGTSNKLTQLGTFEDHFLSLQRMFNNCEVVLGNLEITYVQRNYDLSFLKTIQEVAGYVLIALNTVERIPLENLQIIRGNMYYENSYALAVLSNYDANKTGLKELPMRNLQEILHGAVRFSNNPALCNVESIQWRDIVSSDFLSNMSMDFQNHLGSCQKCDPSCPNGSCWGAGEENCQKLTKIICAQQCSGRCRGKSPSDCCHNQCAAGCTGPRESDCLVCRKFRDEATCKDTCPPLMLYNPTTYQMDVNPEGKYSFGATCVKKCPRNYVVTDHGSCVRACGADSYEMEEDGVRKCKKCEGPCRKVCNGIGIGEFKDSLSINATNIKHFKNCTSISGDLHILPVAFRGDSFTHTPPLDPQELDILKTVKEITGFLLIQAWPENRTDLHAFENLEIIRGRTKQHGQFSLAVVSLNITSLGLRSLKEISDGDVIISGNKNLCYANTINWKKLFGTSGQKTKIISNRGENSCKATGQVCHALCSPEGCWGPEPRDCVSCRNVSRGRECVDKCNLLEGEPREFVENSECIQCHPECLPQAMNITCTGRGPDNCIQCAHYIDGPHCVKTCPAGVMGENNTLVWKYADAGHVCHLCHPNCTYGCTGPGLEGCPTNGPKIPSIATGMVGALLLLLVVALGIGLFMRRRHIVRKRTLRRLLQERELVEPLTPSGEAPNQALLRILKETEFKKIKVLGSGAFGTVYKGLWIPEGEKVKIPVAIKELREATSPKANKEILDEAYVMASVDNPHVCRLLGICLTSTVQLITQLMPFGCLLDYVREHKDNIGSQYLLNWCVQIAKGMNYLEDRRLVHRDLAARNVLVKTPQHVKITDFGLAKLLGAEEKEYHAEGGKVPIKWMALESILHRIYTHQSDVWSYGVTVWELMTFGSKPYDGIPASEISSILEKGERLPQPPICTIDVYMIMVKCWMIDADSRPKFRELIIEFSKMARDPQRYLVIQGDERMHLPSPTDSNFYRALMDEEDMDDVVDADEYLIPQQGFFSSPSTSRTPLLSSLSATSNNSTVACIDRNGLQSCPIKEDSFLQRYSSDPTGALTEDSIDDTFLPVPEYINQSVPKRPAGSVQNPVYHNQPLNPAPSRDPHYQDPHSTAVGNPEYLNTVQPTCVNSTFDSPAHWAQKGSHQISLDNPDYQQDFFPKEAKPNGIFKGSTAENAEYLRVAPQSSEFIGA

Cytochrome P450 2A6 = biological target: T3, Cytochrome P450 2A6 (Homo sapiens, UniProt P11509); details: bti-tn-5b1-4; further: in other assays of this panel Not Active means under 50% inhibition at 10 µM
T3 sequence (P11509 whole entry): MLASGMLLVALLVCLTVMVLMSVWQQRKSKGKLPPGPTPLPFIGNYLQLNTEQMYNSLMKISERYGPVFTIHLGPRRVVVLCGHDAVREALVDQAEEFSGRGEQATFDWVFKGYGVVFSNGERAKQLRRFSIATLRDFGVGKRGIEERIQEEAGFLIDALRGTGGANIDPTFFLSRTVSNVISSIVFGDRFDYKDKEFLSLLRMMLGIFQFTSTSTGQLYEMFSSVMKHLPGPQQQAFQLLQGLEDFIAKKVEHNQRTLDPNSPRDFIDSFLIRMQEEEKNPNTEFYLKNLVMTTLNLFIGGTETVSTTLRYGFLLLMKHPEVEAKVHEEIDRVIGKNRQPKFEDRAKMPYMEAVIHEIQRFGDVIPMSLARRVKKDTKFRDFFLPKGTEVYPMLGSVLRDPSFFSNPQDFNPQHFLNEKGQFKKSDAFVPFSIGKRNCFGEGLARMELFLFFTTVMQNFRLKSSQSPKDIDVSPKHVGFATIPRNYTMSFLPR

Beta-3 adrenergic receptor, sequence (P13945 whole entry): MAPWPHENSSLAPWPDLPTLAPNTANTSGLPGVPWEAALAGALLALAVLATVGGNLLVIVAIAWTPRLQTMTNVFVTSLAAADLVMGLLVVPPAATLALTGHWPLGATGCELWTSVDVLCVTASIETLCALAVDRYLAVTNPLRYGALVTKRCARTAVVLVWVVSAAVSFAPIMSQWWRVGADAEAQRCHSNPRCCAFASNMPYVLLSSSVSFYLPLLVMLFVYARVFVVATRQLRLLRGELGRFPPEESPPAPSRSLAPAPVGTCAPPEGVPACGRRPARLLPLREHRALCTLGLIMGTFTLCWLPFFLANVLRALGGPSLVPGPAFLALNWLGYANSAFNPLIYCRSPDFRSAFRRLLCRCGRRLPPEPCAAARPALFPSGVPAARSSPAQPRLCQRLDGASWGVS

Nc1ccc(S(N)(=O)=O)cc1 [SULFANILAMIDE]
Not Active: IC50 [1] | IC50 [2] | Ki [2] | IC50 [3] | IC50 (D(4) dopamine receptor) | IC50 [4] | Ki [4] | IC50 [5] | Ki [5] | IC50 (Insulin receptor) | IC50 [6] | IC50 [7] | IC50 (Cytochrome P450 2A6) | Ki (Cytochrome P450 2A6)

Nc1ccc(S(=O)(=O)Nc2ccnn2-c2ccccc2)cc1 [SULFAPHENAZOLE]
Not Active: IC50 [1] | IC50 [2] | Ki [2] | IC50 [3] | IC50 (D(4) dopamine receptor) | IC50 [4] | Ki [4] | IC50 [5] | Ki [5] | IC50 (Insulin receptor) | IC50 [6] | IC50 [7] | IC50 (Cytochrome P450 2A6) | Ki (Cytochrome P450 2A6)

C=CC[C@@H]1/C=C(\C)C[C@H](C)C[C@H](OC)[C@H]2O[C@@](O)(C(=O)C(=O)N3CCCC[C@H]3C(=O)O[C@H](/C(C)=C/[C@@H]3CC[C@@H](O)[C@H](OC)C3)[C@H](C)[C@@H](O)CC1=O)[C@H](C)C[C@@H]2OC [TACROLIMUS ANHYDROUS]
Not Active: IC50 [1] | IC50 [2] | Ki [2] | IC50 [3] | IC50 (D(4) dopamine receptor) | IC50 [4] | Ki [4] | IC50 [5] | Ki [5] | IC50 (Insulin receptor) | IC50 [6] | IC50 [7] | IC50 (Cytochrome P450 2A6) | Ki (Cytochrome P450 2A6)

CC1CN(c2cc3c(cc2F)c(=O)c(C(=O)O)cn3-c2ccc(F)cc2F)CCN1 (stereo not given) [TEMAFLOXACIN]
Not Active: IC50 [1] | IC50 [2] | Ki [2] | IC50 [3] | IC50 (D(4) dopamine receptor) | IC50 [4] | Ki [4] | IC50 [5] | Ki [5] | IC50 (Insulin receptor) | IC50 [6] | IC50 [7] | IC50 (Cytochrome P450 2A6) | Ki (Cytochrome P450 2A6)

CC(C)(C)NCC(O)c1cc(O)cc(O)c1 (stereo not given) [TERBUTALINE]
Not Active: IC50 [1] | IC50 [2] | Ki [2] | IC50 [3] | IC50 (D(4) dopamine receptor) | IC50 [4] | Ki [4] | IC50 [5] | Ki [5] | IC50 (Insulin receptor) | IC50 [6] | IC50 [7] | IC50 (Cytochrome P450 2A6) | Ki (Cytochrome P450 2A6)

CN(C)[C@@H]1C(O)=C(C(N)=O)C(=O)[C@@]2(O)C(O)=C3C(=O)c4c(O)cccc4[C@@](C)(O)[C@H]3C[C@@H]12 [TETRACYCLINE]
Not Active: IC50 [1] | IC50 [2] | Ki [2] | IC50 [3] | IC50 (D(4) dopamine receptor) | IC50 [4] | Ki [4] | IC50 [5] | Ki [5] | IC50 (Insulin receptor) | IC50 [6] | IC50 [7] | IC50 (Cytochrome P450 2A6) | Ki (Cytochrome P450 2A6)

c1ccc2[nH]c(-c3cscn3)nc2c1 [THIABENDAZOLE]
Not Active: IC50 [1] | IC50 [2] | Ki [2] | IC50 [3] | IC50 (D(4) dopamine receptor) | IC50 [4] | Ki [4] | IC50 [5] | Ki [5] | IC50 (Insulin receptor) | IC50 [6] | IC50 [7] | IC50 (Cytochrome P450 2A6) | Ki (Cytochrome P450 2A6)

Cc1ccc(C(=O)C(C)CN2CCCCC2)cc1 (stereo not given) [TOLPERISONE]
Not Active: IC50 [1] | IC50 [2] | Ki [2] | IC50 [3] | IC50 (D(4) dopamine receptor) | IC50 [4] | Ki [4] | IC50 [5] | Ki [5] | IC50 (Insulin receptor) | IC50 [6] | IC50 [7] | IC50 (Cytochrome P450 2A6) | Ki (Cytochrome P450 2A6)

NC(CO)(CO)CO [TROMETHAMINE]
Not Active: IC50 [1] | IC50 [2] | Ki [2] | IC50 [3] | IC50 (D(4) dopamine receptor) | IC50 [4] | Ki [4] | IC50 [5] | Ki [5] | IC50 (Insulin receptor) | IC50 [6] | IC50 [7] | IC50 (Cytochrome P450 2A6) | Ki (Cytochrome P450 2A6)

CN1[C@@H]2CC[C@H]1C[C@@H](OC(=O)c1c[nH]c3ccccc13)C2 [TROPISETRON]
Not Active: IC50 [1] | IC50 [2] | Ki [2] | IC50 [3] | IC50 (D(4) dopamine receptor) | IC50 [4] | Ki [4] | IC50 [5] | Ki [5] | IC50 (Insulin receptor) | IC50 [6] | IC50 [7] | IC50 (Cytochrome P450 2A6) | Ki (Cytochrome P450 2A6)
